In patent publication US5846939A, “Use of a decapeptide with benzodiazepine-type activity for preparing medicines and food supplements” (Societe Cooperative Agricole Laitiere D'Artois Et Des …, priority 1994, dated 1998):

Columns and labels:
[1] = biological target: central benzodiazepine receptor; settings: radioligand of the kit; cited from earlier work
[2] = tested on: anxiety in the rat (elevated plus-maze); assay: Tranquilizing activity, elevated plus-maze test; format: in vivo; settings: intraperitoneal, diazepam 2 mg/kg, hydrolysate 3 mg/kg
Description: To measure anxiety in the rat, the elevated plus-maze test described by Pellow et al. (14) was used which is based on neophobia in the rat. The plus-maze had four branches that were 50 cm long and 10 cm wide. The two closed branches were surrounded by walls that were 25 cm high (the top being left open for observation) and the entire maze was 50 cm above the ground. The center of the maze communicated with the two open arms and the two closed arms.
The number of times the animal enters the open arms, the closed arms, and the total number of times the rat enters the arms are important parameters. The time passed in each type of branch was also measured. Other parameters (a total of 22) such as the number of times the rat stood up, the number of times it groomed itself (signs of anxiety), or latency of first entry into an open or closed branch were taken into account. […] Its entire behavior was filmed by video camera, which procedure served to avoid errors.
The control group (CTR) received an intraperitoneal injection of solvent only, which solvent was a mixture of gelatin and mannitol (0.5%/5%) dissolved in water. […] The animals in all of the groups were injected half an hour before going to the plus-maze. To begin the experiments, each rat was placed in the center of the apparatus.

| SMILES | Ki [1] | number of entries into closed branches [2] | number of entries into open branches ([2]; control 1.5±0.3) | time spent in the open branches ([2]; control 19.3±4.4 s) |
| --- | --- | --- | --- | --- |
| CN1C(=O)CN=C(c2ccccc2F)c2cc([N+](=O)[O-])ccc21 [^3 H-methyl-flunitrazepam] | 1.2 nM |  |  |  |
| CN1C(=O)CN=C(c2ccccc2)c2cc(Cl)ccc21 [diazepam] |  | did not vary significantly | 3.0±0.4 | 70.1 ± 19.9 s |
